Measured values from paper doi:10.1101/2025.03.04.25323177v1 (medRxiv, 2025).
No end group written: not given here.

Test system: Anti-PACAP antibodies (capture Lu AG20136, detection Lu AG20141)
Test: Reactivity in PACAP MSD S-PLEX sandwich immunoassay
Assay type: binding
Details: sandwich ECL immunoassay

Molecule | Reactivity in PACAP MSD S-PLEX assay
vasoactive intestinal peptide (HSDAVFTDNYTRLRKQMAVKKYLNSILN; ends and bridges not checked; UniProt P01282 125-152, looked up) [VIP] | No reactivity
ceruloplasmin: protein tested for interaction in the PACAP assay (protein, UniProt P00450 20-1065, looked up) Ceruloplasmin: KEKHYYIGIIETTWDYASDHGEKKLISVDTEHSNIYLQNGPDRIGRLYKKALYLQYTDETFRTTIEKPVWLGFLGPIIKAETGDKVYVHLKNLASRPYTFHSHGITYYKEHEGAIYPDNTTDFQRADDKVYPGEQYTYMLLATEEQSPGEGDGNCVTRIYHSHIDAPKDIASGLIGPLIICKKDSLDKEKEKHIDREFVVMFSVVDENFSWYLEDNIKTYCSEPEKVDKDNEDFQESNRMYSVNGYTFGSLPGLSMCAEDRVKWYLFGMGNEVDVHAAFFHGQALTNKNYRIDTINLFPATLFDAYMVAQNPGEWMLSCQNLNHLKAGLQAFFQVQECNKSSSKDNIRGKHVRHYYIAAEEIIWNYAPSGIDIFTKENLTAPGSDSAVFFEQGTTRIGGSYKKLVYREYTDASFTNRKERGPEEEHLGILGPVIWAEVGDTIRVTFHNKGAYPLSIEPIGVRFNKNNEGTYYSPNYNPQSRSVPPSASHVAPTETFTYEWTVPKEVGPTNADPVCLAKMYYSAVEPTKDIFTGLIGPMKICKKGSLHANGRQKDVDKEFYLFPTVFDENESLLLEDNIRMFTTAPDQVDKEDEDFQESNKMHSMNGFMYGNQPGLTMCKGDSVVWYLFSAGNEADVHGIYFSGNTYLWRGERRDTANLFPQTSLTLHMWPDTEGTFNVECLTTDHYTGGMKQKYTVNQCRRQSEDSTFYLGERTYYIAAVEVEWDYSPQREWEKELHHLQEQNVSNAFLDKGEFYIGSKYKKVVYRQYTDSTFRVPVERKAEEEHLGILGPQLHADVGDKVKIIFKNMATRPYSIHAHGVQTESSTVTPTLPGETLTYVWKIPERSGAGTEDSACIPWAYYSTVDQVKDLYSGLIGPLIVCRRPYLKVFNPRRKLEFALLFLVFDENESWYLDDNIKTYSDHPEKVNKDDEEFIESNKMHAINGRMFGNLQGLTMHVGDEVNWYLMGMGNEIDLHTVHFHGHSFQYKHRGVYSSDVFDIFPGTYQTLEMFPRTPGIWLLHCHVTDHIHAGMETTYTVLQNEDTKSG | no interaction
